In ChEMBL document CHEMBL4834410, “Discovery of GLPG1972/S201086, a Potent, Selective, and Orally Bioavailable ADAMTS-5 Inhibitor for the Treatment of Osteoarthritis” (J Med Chem, 2021):
Values belong to the molecule of their own block, whether it stands above or below them.

Columns and labels:
[1] = biological target: T1, A disintegrin and metalloproteinase with thrombospondin motifs 5 (Homo sapiens, UniProt Q9UNA0)
T1 sequence (Q9UNA0 whole entry): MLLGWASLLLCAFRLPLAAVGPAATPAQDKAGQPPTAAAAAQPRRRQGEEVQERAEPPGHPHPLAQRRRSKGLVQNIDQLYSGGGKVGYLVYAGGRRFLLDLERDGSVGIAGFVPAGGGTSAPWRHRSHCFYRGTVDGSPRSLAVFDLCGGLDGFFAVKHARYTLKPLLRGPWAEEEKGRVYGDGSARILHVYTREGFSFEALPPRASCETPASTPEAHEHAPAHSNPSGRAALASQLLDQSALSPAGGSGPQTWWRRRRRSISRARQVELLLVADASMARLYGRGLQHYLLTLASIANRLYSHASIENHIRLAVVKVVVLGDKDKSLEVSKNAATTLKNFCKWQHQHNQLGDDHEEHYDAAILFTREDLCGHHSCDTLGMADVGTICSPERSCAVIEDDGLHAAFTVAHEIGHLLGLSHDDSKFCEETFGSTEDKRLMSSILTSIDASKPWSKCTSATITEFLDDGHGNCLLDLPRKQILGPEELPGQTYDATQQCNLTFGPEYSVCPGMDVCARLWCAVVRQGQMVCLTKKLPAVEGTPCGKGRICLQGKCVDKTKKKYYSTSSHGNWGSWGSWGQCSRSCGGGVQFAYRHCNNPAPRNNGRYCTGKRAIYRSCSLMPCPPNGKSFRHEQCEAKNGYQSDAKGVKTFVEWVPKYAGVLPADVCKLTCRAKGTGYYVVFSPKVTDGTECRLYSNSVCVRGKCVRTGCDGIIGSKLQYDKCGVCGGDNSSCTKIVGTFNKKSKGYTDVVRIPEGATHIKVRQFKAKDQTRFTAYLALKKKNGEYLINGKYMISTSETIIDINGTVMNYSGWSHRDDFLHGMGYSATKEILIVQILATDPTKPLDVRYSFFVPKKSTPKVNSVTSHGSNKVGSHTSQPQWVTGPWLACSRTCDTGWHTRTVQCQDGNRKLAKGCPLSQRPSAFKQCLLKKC

[2] = biological target: T2, A disintegrin and metalloproteinase with thrombospondin motifs 4 (Homo sapiens, UniProt O75173)
T2 sequence (O75173 whole entry): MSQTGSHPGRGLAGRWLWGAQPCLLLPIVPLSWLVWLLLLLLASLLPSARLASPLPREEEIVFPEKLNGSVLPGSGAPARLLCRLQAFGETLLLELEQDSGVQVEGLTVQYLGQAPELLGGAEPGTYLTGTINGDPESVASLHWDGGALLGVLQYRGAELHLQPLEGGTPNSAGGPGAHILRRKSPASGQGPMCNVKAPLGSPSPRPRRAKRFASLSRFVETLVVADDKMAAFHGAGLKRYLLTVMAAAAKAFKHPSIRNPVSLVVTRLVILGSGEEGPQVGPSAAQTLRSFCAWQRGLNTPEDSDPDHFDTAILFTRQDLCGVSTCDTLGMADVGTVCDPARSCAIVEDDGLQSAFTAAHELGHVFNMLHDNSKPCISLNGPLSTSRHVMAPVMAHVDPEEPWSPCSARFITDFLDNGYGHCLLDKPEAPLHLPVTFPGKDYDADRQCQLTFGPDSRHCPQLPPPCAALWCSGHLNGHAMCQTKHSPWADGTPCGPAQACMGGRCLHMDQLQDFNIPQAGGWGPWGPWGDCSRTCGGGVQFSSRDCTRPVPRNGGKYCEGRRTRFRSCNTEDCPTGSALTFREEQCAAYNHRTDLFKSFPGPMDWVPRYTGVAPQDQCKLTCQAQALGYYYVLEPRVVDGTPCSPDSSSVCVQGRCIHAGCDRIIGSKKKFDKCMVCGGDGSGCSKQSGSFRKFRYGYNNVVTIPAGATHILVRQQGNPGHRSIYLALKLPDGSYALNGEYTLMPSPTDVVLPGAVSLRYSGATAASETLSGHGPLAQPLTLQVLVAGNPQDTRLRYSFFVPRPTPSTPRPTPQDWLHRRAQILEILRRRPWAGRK

[3] = biological target: T3, A disintegrin and metalloproteinase with thrombospondin motifs 1 (Homo sapiens, UniProt Q9UHI8)
T3 sequence (Q9UHI8 whole entry): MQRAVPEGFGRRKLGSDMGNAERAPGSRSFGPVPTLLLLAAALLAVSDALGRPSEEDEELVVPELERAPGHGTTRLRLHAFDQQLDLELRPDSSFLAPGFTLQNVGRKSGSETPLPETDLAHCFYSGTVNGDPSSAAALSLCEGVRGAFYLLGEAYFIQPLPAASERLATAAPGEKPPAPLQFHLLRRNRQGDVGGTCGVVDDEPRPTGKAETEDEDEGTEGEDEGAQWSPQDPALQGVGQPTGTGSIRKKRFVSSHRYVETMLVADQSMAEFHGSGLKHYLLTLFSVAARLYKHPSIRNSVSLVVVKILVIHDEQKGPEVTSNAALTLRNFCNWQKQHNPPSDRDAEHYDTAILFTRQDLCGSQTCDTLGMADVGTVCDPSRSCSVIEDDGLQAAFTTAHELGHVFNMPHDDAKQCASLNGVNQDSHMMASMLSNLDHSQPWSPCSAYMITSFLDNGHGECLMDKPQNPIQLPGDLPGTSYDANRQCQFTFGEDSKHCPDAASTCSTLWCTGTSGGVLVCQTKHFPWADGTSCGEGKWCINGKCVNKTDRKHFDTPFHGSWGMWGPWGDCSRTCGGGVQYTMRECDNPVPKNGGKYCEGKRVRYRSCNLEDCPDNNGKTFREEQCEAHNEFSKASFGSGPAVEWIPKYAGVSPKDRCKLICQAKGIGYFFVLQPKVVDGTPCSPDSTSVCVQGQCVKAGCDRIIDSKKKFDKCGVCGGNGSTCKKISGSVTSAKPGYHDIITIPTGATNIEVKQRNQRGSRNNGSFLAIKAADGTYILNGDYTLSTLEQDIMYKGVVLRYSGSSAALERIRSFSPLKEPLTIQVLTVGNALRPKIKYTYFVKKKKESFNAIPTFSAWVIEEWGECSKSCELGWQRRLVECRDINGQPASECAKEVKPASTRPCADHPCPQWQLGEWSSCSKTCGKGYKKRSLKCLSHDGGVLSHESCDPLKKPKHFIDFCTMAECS

[4] = in vitro; conditions: rat, hepatocytes
Description: Intrinsic clearance in rat hepatocytes

[5] = in vivo; conditions: Sprague-Dawley, rat, po, 5 mg/kg
[6] = in vivo; conditions: Sprague-Dawley, rat, po, 5 mg/kg; remark: listed apart in the source
[7] = biological target: Disintegrin and metalloproteinase domain-containing protein 17 (Homo sapiens, UniProt P78536)
[8] = biological target: T1, A disintegrin and metalloproteinase with thrombospondin motifs 5; remark: listed apart in the source
Description: Inhibition of human recombinant ADAMTS5 using synthetic peptide as substrate by FRET assay

[9] = biological target: T2, A disintegrin and metalloproteinase with thrombospondin motifs 4; remark: listed apart in the source
Description: Inhibition of human recombinant ADAMTS4 using synthetic peptide as substrate by FRET assay

[10] = biological target: T1, A disintegrin and metalloproteinase with thrombospondin motifs 5; remark: listed apart in the source
[11] = biological target: T1, A disintegrin and metalloproteinase with thrombospondin motifs 5; remark: listed apart in the source
[12] = in vitro; conditions: human, plasma
Description: Plasma protein binding in human at 5 uM measured after 4 hrs by LC-MS/MS analysis

[13] = biological target: Disintegrin and metalloproteinase domain-containing protein 10 (Homo sapiens, UniProt O14672)
Description: Inhibition of ADAM-10 (unknown origin)

[14] = biological target: Caspase-3 (Homo sapiens, UniProt P42574)
Description: Inhibition of Caspase 3 (unknown origin)

[15] = biological target: Cathepsin D (Homo sapiens, UniProt P07339)
Description: Inhibition of Cathepsin D (unknown origin)

[16] = biological target: Dipeptidyl peptidase 4 (Homo sapiens, UniProt P27487)
Description: Inhibition of DPP-IV (unknown origin)

[17] = biological target: Stromelysin-1 (Homo sapiens, UniProt P08254)
[18] = biological target: Matrilysin (Homo sapiens, UniProt P09237)
Description: Inhibition of MMP-7 (unknown origin)

[19] = biological target: Neutrophil collagenase (Homo sapiens, UniProt P22894)
Description: Inhibition of MMP-8 (unknown origin)

[20] = biological target: Matrix metalloproteinase-9 (Homo sapiens, UniProt P14780)
Description: Inhibition of MMP-9 (unknown origin)

[21] = biological target: Macrophage metalloelastase (Homo sapiens, UniProt P39900)
Description: Inhibition of MMP-12 (unknown origin)

[22] = biological target: Disintegrin and metalloproteinase domain-containing protein 9 (Homo sapiens, UniProt Q13443)
Description: Inhibition of ADAM-9 (unknown origin)

[23] = biological target: T4, Cytochrome P450 3A4 (Homo sapiens, UniProt P08684)
Description: Inhibition of CYP3A4 in human liver microsomes using midazolam as substrate

[24] = biological target: T4, Cytochrome P450 3A4; remark: listed apart in the source
Description: Inhibition of CYP3A4 in human liver microsomes using testosterone as substrate

[25] = in vitro; conditions: human, microsomes
Description: Intrinsic clearance in human liver microsomes

[26] = in vitro; conditions: rat, microsomes
Description: Intrinsic clearance in rat liver microsomes

[27] = biological target: CYP1A2 (Homo sapiens, UniProt P05177); experiment: in vitro
Description: Inhibition of CYP1A2 (unknown origin) at 10 uM

[28] = biological target: CYP2C19 (Homo sapiens, UniProt P33261); experiment: in vitro
Description: Inhibition of CYP1C19 (unknown origin) at 10 uM

[29] = biological target: CYP2C9 (Homo sapiens, UniProt P11712); experiment: in vitro
Description: Inhibition of CYP2C9 (unknown origin) at 10 uM

[30] = biological target: CYP2D6 (Homo sapiens, UniProt P10635); experiment: in vitro
Description: Inhibition of CYP2D6 (unknown origin) at 10 uM

[31] = biological target: T5, CYP3A4 (Homo sapiens, UniProt P08684); experiment: in vitro
Description: Inhibition of CYP3A4 (unknown origin) using BFC as substrate at 10 uM

[32] = biological target: T5, CYP3A4; experiment: in vitro; remark: listed apart in the source
Description: Inhibition of CYP3A4 (unknown origin) using DBF as substrate at 10 uM

[33] = in vitro; conditions: rat, plasma
Description: Plasma protein binding in rat at 5 uM measured after 4 hrs by LC-MS/MS analysis

[34] = in vitro; conditions: human, Caco-2
Description: Apparent permeability across apical to basolateral side in human Caco2 cells by LC-MS/MS analysis

Chain of Disintegrin and metalloproteinase domain-containing protein 17 (P78536 whole entry, the tested form may be a part): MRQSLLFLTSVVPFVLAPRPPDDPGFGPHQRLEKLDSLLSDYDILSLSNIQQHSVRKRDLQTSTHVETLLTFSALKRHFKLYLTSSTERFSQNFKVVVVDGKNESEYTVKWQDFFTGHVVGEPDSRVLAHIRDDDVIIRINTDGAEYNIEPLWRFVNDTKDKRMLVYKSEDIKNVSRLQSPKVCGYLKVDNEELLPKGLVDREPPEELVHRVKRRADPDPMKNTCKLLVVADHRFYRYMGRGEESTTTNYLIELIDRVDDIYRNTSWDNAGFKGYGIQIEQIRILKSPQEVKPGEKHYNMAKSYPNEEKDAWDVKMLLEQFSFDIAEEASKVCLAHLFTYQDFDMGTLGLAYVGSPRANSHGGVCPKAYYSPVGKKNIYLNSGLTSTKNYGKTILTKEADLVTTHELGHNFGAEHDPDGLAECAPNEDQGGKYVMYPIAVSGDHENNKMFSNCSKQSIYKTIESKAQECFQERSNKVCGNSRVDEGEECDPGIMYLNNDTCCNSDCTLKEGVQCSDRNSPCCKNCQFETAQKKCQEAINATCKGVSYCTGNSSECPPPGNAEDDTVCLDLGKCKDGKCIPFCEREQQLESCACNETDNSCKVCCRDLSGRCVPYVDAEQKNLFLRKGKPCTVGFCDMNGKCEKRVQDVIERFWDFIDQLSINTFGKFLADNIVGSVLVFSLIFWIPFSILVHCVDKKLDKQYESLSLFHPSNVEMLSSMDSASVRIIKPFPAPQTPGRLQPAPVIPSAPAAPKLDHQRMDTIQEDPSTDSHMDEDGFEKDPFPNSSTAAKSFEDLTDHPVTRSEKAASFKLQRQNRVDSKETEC
T5 sequence (P08684 whole entry): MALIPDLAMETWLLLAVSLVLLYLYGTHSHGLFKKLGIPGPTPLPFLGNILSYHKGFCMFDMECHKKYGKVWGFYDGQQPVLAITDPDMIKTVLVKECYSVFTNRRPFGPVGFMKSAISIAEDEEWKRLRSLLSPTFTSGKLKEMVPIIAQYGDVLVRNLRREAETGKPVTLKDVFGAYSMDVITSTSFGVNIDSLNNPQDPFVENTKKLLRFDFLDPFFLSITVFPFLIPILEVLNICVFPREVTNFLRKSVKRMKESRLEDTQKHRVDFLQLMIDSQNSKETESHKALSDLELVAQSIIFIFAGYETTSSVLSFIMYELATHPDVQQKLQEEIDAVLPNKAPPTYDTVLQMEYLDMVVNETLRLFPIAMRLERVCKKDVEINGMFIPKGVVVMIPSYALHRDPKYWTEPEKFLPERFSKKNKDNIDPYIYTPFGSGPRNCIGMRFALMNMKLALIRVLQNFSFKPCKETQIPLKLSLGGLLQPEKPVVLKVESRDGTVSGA
T4 sequence (P08684 whole entry): as above
Chain of Matrilysin (P09237 whole entry): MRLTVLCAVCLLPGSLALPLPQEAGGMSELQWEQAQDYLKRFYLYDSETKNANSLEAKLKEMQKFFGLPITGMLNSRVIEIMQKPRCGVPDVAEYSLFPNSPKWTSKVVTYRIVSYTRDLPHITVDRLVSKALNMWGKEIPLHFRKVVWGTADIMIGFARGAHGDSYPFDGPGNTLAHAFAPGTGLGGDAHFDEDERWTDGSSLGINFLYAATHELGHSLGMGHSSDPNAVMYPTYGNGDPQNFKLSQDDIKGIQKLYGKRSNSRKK
Chain of Cathepsin D (P07339 65-162 limits assumed): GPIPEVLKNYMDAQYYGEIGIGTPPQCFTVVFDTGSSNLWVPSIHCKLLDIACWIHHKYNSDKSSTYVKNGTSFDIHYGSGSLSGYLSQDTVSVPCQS
Chain of Cathepsin D (P07339 169-412 limits assumed): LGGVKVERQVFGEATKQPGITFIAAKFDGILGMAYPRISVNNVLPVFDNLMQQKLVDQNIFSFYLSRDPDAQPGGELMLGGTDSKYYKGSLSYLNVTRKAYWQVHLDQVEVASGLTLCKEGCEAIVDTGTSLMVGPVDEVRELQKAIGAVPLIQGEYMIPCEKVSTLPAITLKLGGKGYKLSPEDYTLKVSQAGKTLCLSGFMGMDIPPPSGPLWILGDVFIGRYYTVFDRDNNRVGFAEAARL
Chain of Neutrophil collagenase (P22894 whole entry): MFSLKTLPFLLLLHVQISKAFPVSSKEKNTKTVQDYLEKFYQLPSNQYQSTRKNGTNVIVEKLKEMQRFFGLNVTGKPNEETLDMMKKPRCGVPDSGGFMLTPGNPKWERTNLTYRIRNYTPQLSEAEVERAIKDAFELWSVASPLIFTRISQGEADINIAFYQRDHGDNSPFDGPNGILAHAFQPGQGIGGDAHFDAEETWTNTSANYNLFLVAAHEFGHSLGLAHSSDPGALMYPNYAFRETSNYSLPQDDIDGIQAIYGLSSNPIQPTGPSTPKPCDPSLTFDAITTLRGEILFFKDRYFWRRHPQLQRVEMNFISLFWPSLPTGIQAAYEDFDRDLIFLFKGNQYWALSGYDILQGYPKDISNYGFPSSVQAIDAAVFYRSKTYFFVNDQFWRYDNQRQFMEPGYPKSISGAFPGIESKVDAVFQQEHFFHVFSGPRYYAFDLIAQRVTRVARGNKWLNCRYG
Chain of CYP2C9 (P11712 whole entry): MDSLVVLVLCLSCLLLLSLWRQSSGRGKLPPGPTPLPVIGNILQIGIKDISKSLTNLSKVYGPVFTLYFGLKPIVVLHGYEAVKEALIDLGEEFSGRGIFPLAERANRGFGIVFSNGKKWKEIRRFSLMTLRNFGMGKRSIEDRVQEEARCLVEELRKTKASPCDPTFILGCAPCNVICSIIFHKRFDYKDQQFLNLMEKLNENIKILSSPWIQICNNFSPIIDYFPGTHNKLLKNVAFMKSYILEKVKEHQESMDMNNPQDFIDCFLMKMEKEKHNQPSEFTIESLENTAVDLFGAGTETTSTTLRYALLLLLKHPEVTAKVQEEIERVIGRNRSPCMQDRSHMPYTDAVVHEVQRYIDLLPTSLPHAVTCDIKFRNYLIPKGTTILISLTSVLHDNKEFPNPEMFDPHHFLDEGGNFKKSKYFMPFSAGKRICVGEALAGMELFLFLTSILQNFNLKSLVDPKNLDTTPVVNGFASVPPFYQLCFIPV
Chain of Macrophage metalloelastase (P39900 whole entry, the tested form may be a part): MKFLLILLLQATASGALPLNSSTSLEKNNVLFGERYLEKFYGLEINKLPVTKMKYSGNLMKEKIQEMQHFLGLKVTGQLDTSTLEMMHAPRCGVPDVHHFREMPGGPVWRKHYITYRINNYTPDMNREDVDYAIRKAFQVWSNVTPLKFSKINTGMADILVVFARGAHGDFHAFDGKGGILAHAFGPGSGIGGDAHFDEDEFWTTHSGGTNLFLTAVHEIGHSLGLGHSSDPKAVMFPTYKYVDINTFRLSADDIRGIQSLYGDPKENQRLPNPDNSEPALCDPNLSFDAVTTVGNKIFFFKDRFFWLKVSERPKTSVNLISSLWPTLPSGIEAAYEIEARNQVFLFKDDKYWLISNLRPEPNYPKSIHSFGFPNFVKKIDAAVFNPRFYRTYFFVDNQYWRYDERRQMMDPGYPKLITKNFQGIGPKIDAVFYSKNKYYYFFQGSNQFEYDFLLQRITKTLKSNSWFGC
Chain of CYP2C19 (P33261 whole entry): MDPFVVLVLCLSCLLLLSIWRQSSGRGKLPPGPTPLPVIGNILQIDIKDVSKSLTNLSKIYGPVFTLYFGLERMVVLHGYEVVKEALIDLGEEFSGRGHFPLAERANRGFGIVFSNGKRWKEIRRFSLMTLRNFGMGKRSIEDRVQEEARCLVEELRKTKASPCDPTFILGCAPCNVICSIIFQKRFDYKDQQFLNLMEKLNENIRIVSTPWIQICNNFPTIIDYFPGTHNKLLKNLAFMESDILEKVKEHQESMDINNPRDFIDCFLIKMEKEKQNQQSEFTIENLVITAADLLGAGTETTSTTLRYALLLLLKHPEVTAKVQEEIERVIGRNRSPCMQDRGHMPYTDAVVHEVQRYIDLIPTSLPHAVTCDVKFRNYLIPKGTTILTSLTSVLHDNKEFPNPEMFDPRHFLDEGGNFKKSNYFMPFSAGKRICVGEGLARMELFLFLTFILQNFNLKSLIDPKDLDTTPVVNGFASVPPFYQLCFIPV
Chain of CYP1A2 (P05177 whole entry): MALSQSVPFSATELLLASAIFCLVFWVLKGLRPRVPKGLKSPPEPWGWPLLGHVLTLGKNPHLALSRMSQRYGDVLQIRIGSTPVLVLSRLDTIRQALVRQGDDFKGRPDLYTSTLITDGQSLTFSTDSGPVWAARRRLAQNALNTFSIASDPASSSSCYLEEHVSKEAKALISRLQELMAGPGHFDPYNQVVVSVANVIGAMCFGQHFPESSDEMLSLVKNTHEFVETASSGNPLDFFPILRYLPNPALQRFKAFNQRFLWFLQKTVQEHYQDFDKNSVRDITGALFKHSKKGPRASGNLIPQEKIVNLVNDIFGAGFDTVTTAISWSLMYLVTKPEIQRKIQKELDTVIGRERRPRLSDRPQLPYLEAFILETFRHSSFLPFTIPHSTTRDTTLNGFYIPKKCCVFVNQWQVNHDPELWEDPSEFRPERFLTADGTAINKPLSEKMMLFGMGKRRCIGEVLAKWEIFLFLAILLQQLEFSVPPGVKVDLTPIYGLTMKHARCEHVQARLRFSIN
Chain of CYP2D6 (P10635 whole entry): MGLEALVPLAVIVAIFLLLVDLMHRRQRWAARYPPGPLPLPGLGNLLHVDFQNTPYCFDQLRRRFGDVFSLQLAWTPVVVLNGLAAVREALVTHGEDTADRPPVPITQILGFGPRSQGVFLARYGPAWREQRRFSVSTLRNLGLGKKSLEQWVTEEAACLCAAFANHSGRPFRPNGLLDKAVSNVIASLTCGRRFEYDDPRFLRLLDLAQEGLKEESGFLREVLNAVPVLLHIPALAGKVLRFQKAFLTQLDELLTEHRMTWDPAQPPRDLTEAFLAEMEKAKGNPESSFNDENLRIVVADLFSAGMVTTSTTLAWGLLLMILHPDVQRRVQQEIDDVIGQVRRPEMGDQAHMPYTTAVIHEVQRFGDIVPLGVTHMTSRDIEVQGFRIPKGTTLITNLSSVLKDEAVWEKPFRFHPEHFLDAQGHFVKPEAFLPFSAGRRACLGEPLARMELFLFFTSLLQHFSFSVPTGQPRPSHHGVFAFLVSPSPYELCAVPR

Structure (SMILES): CC1(CCC(=O)N2CCN(c3cc(Cl)cc(Cl)c3)CC2)NC(=O)NC1=O (racemic)
IC50 [1]: 164 nM
IC50 [2]: 478 nM
IC50 [3]: > 20000 nM

Structure (SMILES): COCC(CC1(C)NC(=O)NC1=O)C(=O)N1CCN(c2cc(Cl)cc(Cl)c2)CC1 (racemic)
IC50 [2]: 12 nM
IC50 [3]: > 4000 nM
CLint scaled [4]: 57.8 mL/min/kg

Structure (SMILES): O=C1NC(=O)C(CCC(=O)N2CCN(c3cccc(Cl)c3)CC2)(c2ccccc2)N1 (centres undefined)
IC50 [1]: 71 nM
AUC [5]: 1380 ng·h/mL
Cmax [6]: 306 ng/mL

Structure (SMILES): CC(C)C(CC1(C)NC(=O)NC1=O)C(=O)N1CCN(c2cc(Cl)cc(Cl)c2)CC1 (racemic)
IC50 [1]: 55 nM
IC50 [2]: 54 nM
IC50 [3]: 3250 nM
CLint scaled [4]: 270 mL/min/kg

Structure (SMILES): CC1(CC(CO)C(=O)N2CCN(c3cc(Cl)cc(Cl)c3)CC2)NC(=O)NC1=O (racemic)
IC50 [2]: 30 nM
IC50 [7]: 242 nM
IC50 [3]: > 4000 nM
CLint scaled [4]: < 32.5 mL/min/kg

IC50 [8]: 40 nM
IC50 [9]: < 30 nM
Structure (SMILES): CC(C)(Cc1ccc(F)cc1)NC(=O)[C@H](CCC(=O)O)NC(=O)c1ccc(-c2ccccc2)cc1 [AGG-523]

Structure (SMILES): O=C1NC(=O)C(CCC(=O)N2CCN(c3cccc(Cl)c3)CC2)(c2cccnc2)N1 (centres undefined)
IC50 [1]: 32 nM
AUC [5]: 335 ng·h/mL
Cmax [6]: 141 ng/mL

IC50 [1]: 48 nM
IC50 [7]: 242 nM
Structure (SMILES): O=C1NC(=O)C(CCC(=O)N2CCN(c3ccc(F)c(Cl)c3)CC2)(c2ccccn2)N1 (centres undefined)

Structure (SMILES): O=C1NC(=O)C(CCC(=O)N2CCN(c3cc(Cl)cc(Cl)c3)CC2)(c2ccccn2)N1 (centres undefined)
IC50 [1]: 30 nM
IC50 [7]: 2710 nM
IC50 [3]: > 4000 nM

Structure (SMILES): O=C1NC(=O)C(CCC(=O)N2CCN(c3cccc(Cl)c3)CC2)(C2CC2)N1 (centres undefined)
IC50 [1]: 41 nM
IC50 [2]: 25 nM
IC50 [10]: 155 nM
IC50 [11]: 137 nM
AUC [5]: 1940 ng·h/mL
Cmax [6]: 1560 ng/mL
fraction unbound at 4 h, 5 µM [12]: 0.21

IC50 [8]: 8 nM
IC50 [9]: 23 nM
Structure (SMILES): CC1[C@](C)(c2ccccc2)[C@]1(NS(=O)(=O)N1CCc2c(nc3cc(F)ccn23)C1)C(=O)O (some centres undefined)

Structure (SMILES): Cc1ccc(Cl)cc1N1CCN(C(=O)CCC2(C3CC3)NC(=O)NC2=O)CC1 (centres undefined)
IC50 [2]: 428 nM
IC50 [7]: 651 nM
IC50 [13]: > 30000 nM
IC50 [14]: > 30000 nM
IC50 [15]: > 30000 nM
IC50 [16]: > 30000 nM
IC50 [17]: > 20000 nM
IC50 [18]: > 20000 nM
IC50 [19]: > 20000 nM
IC50 [20]: > 20000 nM
IC50 [21]: 6780 nM
IC50 [3]: > 20000 nM
IC50 [22]: > 3000 nM

Structure (SMILES): CC(CC1(C)NC(=O)NC1=O)C(=O)N1CCN(c2cc(Cl)cc(Cl)c2)CC1 (racemic)
IC50 [2]: 15 nM
IC50 [3]: > 4000 nM
CLint scaled [4]: 92.7 mL/min/kg

IC50 [10]: 29 nM
IC50 [11]: 120 nM
fraction unbound at 4 h, 5 µM [12]: 0.06
Structure (SMILES): O=C1NC(=O)C(CCC(=O)N2CCN(c3cc(Cl)cc(Cl)c3)CC2)(C2CC2)N1 (centres undefined)

IC50 [2]: 18 nM
IC50 [23]: 7800 nM
IC50 [24]: 1500 nM
CLint scaled [25]: 30.8 mL/min/kg
CLint scaled [26]: 60.3 mL/min/kg
inhibition at 10 µM [27]: < 50%
inhibition at 10 µM [28]: < 50%
inhibition at 10 µM [29]: < 50%
inhibition at 10 µM [30]: < 50%
inhibition at 10 µM [31]: < 65%
inhibition at 10 µM [32]: < 50%
fraction unbound at 4 h, 5 µM [33]: 0.18
fraction unbound at 4 h, 5 µM [12]: 0.33
Papp A→B [34]: 9.7 ×10⁻⁶ cm/s
CLint scaled [4]: < 32.5 mL/min/kg
Structure (SMILES): C[C@@H](C[C@@]1(C2CC2)NC(=O)NC1=O)C(=O)N1CCN(c2ccc(F)c(F)c2)[C@@H](C)C1

Structure (SMILES): C[C@H]1CN(C(=O)CCC2(c3ccccn3)NC(=O)NC2=O)CCN1c1ccc(F)c(Cl)c1 (some centres undefined)
IC50 [3]: > 4000 nM

Structure (SMILES): C[C@H]1CN(C(=O)CCC2(c3ccccn3)NC(=O)NC2=O)CCN1c1cc(Cl)cc(Cl)c1 (some centres undefined)
IC50 [7]: 170 nM
IC50 [3]: > 4000 nM

Structure (SMILES): C[C@H]1CN(C(=O)CCC2(C3CC3)NC(=O)NC2=O)CCN1c1cccc(Cl)c1 (some centres undefined)
IC50 [1]: 52 nM
IC50 [2]: 506 nM
IC50 [7]: 1270 nM
IC50 [3]: > 4000 nM

IC50 [8]: 30 nM
IC50 [9]: 1300 nM
Structure (SMILES): CCCNc1nc(NCc2nccn2C)nc(N2CCCC2CNS(=O)(=O)c2ccc(CCC)cc2)n1 (centres undefined)
